This is an account of results in patent publication US9776995B2, “Bicyclic sulfonamide compounds as sodium channel inhibitors” (AMGEN INC., priority 2013, dated 2017).

The structures appear in SMILES notation.

The target in one experiment is Nav 1.7 (Homo sapiens (Human), UniProt Q15858). Description: Nav 1.7 in vitro PX assay (PatchXpress whole cell voltage clamp).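 Also: holding potential set for 20 to 50% inactivation, sodium current evoked by a 20 ms step to −10 mV, peak current inhibition read after compound exposure, 3–5 cells per concentration.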 It counts as cell-based. To be noted: PatchXpress (PX).
Sequence of Nav 1.7 (Q15858 whole entry): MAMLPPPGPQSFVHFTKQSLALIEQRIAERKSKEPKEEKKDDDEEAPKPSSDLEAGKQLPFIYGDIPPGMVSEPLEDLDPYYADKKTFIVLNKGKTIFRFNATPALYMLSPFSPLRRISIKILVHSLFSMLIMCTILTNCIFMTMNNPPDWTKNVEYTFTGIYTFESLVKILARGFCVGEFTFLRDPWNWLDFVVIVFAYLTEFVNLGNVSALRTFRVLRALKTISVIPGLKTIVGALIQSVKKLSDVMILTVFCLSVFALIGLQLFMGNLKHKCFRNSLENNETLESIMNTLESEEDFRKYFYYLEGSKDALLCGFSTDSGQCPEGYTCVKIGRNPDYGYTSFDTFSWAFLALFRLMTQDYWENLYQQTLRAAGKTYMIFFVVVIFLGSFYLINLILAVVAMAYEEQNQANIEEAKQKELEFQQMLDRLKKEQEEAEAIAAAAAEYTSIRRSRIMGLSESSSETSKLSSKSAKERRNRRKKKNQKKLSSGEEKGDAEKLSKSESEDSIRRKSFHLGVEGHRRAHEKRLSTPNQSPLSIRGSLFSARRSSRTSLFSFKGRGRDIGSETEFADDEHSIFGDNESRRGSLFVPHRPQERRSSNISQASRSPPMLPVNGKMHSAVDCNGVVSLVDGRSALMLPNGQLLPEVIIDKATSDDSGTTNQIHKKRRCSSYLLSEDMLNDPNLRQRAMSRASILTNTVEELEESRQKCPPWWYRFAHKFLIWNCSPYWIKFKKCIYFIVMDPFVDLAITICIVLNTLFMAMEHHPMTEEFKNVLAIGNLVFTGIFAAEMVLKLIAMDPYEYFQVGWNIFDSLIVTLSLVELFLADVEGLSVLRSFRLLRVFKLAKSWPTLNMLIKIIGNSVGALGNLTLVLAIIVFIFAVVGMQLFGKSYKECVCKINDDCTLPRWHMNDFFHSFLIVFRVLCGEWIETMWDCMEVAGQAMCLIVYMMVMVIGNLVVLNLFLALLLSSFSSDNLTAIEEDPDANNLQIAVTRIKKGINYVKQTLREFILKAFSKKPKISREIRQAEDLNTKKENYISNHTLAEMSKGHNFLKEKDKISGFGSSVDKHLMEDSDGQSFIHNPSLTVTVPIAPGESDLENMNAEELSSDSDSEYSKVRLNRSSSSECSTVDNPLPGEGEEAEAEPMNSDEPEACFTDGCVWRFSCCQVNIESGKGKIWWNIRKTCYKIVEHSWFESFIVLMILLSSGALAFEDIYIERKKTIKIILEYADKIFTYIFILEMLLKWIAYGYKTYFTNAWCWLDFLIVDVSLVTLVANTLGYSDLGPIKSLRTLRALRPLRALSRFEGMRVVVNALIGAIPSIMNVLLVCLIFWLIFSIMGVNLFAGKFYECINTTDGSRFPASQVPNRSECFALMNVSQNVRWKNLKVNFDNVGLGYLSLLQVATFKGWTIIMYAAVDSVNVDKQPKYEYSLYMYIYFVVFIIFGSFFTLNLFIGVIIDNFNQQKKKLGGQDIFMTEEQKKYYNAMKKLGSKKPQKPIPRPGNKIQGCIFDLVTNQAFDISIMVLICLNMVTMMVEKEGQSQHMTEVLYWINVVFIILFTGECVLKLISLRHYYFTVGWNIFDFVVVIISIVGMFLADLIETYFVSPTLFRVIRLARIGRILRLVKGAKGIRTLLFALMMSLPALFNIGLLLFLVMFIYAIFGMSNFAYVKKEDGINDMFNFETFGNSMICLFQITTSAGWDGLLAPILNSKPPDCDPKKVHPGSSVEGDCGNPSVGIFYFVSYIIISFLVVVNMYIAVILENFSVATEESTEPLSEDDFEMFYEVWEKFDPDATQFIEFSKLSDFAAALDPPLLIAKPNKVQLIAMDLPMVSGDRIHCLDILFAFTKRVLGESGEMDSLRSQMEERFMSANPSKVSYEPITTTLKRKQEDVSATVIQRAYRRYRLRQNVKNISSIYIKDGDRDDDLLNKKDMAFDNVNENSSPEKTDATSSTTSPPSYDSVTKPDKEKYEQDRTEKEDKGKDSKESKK
`COc1cc(C(F)(F)F)c(C2CC2)cc1-c1nccc2cc(S(=O)(=O)Nc3ccon3)ccc12` [Example 258, 1-(5-cyclopropyl-2-methoxy-4-(trifluoromethyl)phenyl)-N-3-isoxazolyl-6-isoquinolinesulfonamide] had a half-maximal inhibitory concentration (IC50) of 543 nM. In other words, the sub-micromolar range.
In turn, `COc1cc(-c2cc(C)cc(F)c2)c(C)cc1-c1ncnc2cc(S(=O)(=O)Nc3ccon3)ccc12` [Example 260, 4-(3′-fluoro-5-methoxy-2,5′-dimethyl-4-biphenylyl)-N-3-isoxazolyl-7-quinazolinesulfonamide] registered an IC50 of 36.7 nM.
Same read-out and setting: in the case of `COc1cc(-c2ccc(F)c(C)c2)c(C)cc1-c1ncnc2cc(S(=O)(=O)Nc3ccon3)ccc12` [Example 261, 4-(4′-fluoro-5-methoxy-2,3′-dimethyl-4-biphenylyl)-N-3-isoxazolyl-7-quinazolinesulfonamide] it was 38.1 nM; in that of `COc1cc(-c2cc(C)c(C)cc2C)c(C)cc1-c1ncnc2cc(S(=O)(=O)Nc3ccon3)ccc12` [Example 262, N-3-isoxazolyl-4-(5-methoxy-2,2′,4′,5′-tetramethyl-4-biphenylyl)-7-quinazolinesulfonamide], 62.5 nM; in that of `COc1cc(-c2cccc(C)c2)c(C)cc1-c1ncnc2cc(S(=O)(=O)Nc3ccon3)ccc12` [Example 263, N-3-isoxazolyl-4-(5-methoxy-2,3′-dimethyl-4-biphenylyl)-7-quinazolinesulfonamide], 102 nM.
As for `COc1cc(-c2cccc(Cl)c2)c(C)cc1-c1ncnc2cc(S(=O)(=O)Nc3ccon3)ccc12` [Example 264, 4-(3′-chloro-5-methoxy-2-methyl-4-biphenylyl)-N-3-isoxazolyl-7-quinazolinesulfonamide], 12.1 nM corresponded to half-maximal inhibition (IC50).
On the same count and under the same terms, for `COc1cc(-c2cccc(C(F)(F)F)c2)c(C)cc1-c1ncnc2cc(S(=O)(=O)Nc3ccon3)ccc12` [Example 265, N-3-isoxazolyl-4-(5-methoxy-2-methyl-3′-(trifluoromethyl)-4-biphenylyl)-7-quinazolinesulfonamide] the value was 18.4 nM.
On the same count and under the same terms, for `COc1ccc(Cl)cc1-c1cc(OC)c(-c2ncnc3cc(S(=O)(=O)Nc4ccon4)ccc23)cc1C` [Example 266, 4-(5′-chloro-2′,5-dimethoxy-2-methyl-4-biphenylyl)-N-3-isoxazolyl-7-quinazolinesulfonamide] the value was 18.1 nM; for `COc1cc(-c2ccc(C)c(Cl)c2)c(C)cc1-c1ncnc2cc(S(=O)(=O)Nc3ccon3)ccc12` [Example 267, 4-(3′-chloro-5-methoxy-2,4′-dimethyl-4-biphenylyl)-N-3-isoxazolyl-7-quinazolinesulfonamide], 28.7 nM; for `COc1cc(-c2cc(C)cc(Cl)c2)c(C)cc1-c1ncnc2cc(S(=O)(=O)Nc3ccon3)ccc12` [Example 268, 4-(3′-chloro-5-methoxy-2,5′-dimethyl-4-biphenylyl)-N-3-isoxazolyl-7-quinazolinesulfonamide], 23.9 nM.
In turn, `COc1cc(-c2ccc(F)c(Cl)c2)c(C)cc1-c1ncnc2cc(S(=O)(=O)Nc3ccon3)ccc12` [Example 269, 4-(3′-chloro-4′-fluoro-5-methoxy-2-methyl-4-biphenylyl)-N-3-isoxazolyl-7-quinazolinesulfonamide] registered an IC50 of 25.2 nM.
The compound `COc1cc(-c2cc(F)cc(Cl)c2)c(C)cc1-c1ncnc2cc(S(=O)(=O)Nc3ccon3)ccc12` [Example 270, 4-(3′-chloro-5′-fluoro-5-methoxy-2-methyl-4-biphenylyl)-N-3-isoxazolyl-7-quinazolinesulfonamide] had an IC50 of 29.9 nM.
Take `COc1cc(-c2ccc(Cl)c(F)c2)c(C)cc1-c1ncnc2cc(S(=O)(=O)Nc3ccon3)ccc12` [Example 271, 4-(4′-chloro-3′-fluoro-5-methoxy-2-methyl-4-biphenylyl)-N-3-isoxazolyl-7-quinazolinesulfonamide]: half-maximal inhibition (IC50) was put at 47.2 nM.
Compound `COc1cc(-c2cc(F)cc(F)c2)c(C)cc1-c1nccc2cc(S(=O)(=O)Nc3ccon3)ccc12` [Example 272, 1-(3′,5′-difluoro-5-methoxy-2-methyl-4-biphenylyl)-N-3-isoxazolyl-6-isoquinolinesulfonamide] showed an IC50 of 31.9 nM.
For `COc1cc(-c2cc(C)cc(F)c2)c(C)cc1-c1nccc2cc(S(=O)(=O)Nc3ccon3)ccc12` [Example 273, 1-(3′-fluoro-5-methoxy-2,5′-dimethyl-4-biphenylyl)-N-3-isoxazolyl-6-isoquinolinesulfonamide], half-maximal inhibition (IC50) required 73.3 nM.
On the same count and under the same terms, in the case of `COc1cc(-c2ccc(F)c(C)c2)c(C)cc1-c1nccc2cc(S(=O)(=O)Nc3ccon3)ccc12` [Example 274, 1-(4′-fluoro-5-methoxy-2,3′-dimethyl-4-biphenylyl)-N-3-isoxazolyl-6-isoquinolinesulfonamide] it was 63.2 nM.
Still for that read-out and setting: in the case of `COc1cc(-c2cc(C)c(C)cc2C)c(C)cc1-c1nccc2cc(S(=O)(=O)Nc3ccon3)ccc12` [Example 275, N-3-isoxazolyl-1-(5-methoxy-2,2′,4′,5′-tetramethyl-4-biphenylyl)-6-isoquinolinesulfonamide] it was 242 nM.
`COc1cc(-c2cccc(C)c2)c(C)cc1-c1nccc2cc(S(=O)(=O)Nc3ccon3)ccc12` [Example 276, N-3-isoxazolyl-1-(5-methoxy-2,3′-dimethyl-4-biphenylyl)-6-isoquinolinesulfonamide] yielded an IC50 of 169 nM. This IC50 and that of the compound before are within 1.5-fold of each other.
In turn, `COc1cc(-c2cccc(Cl)c2)c(C)cc1-c1nccc2cc(S(=O)(=O)Nc3ccon3)ccc12` [Example 277, 1-(3′-chloro-5-methoxy-2-methyl-4-biphenylyl)-N-3-isoxazolyl-6-isoquinolinesulfonamide] showed an IC50 of 40 nM.

Staying with this experiment, now noted: in-vitro Nav 1.7 PX (PatchXpress).
In turn, `COc1cc(-c2cc(F)cnc2OC)c(C)cc1-c1nccc2cc(S(=O)(=O)Nc3ccon3)ccc12` [Example 279, 1-(4-(5-fluoro-2-methoxy-3-pyridinyl)-2-methoxy-5-methylphenyl)-N-3-isoxazolyl-6-isoquinolinesulfonamide] gave a 50% inhibitory concentration (IC50) of 63 nM. This counts as double-digit nanomolar.
On the same count and under the same terms, for `COc1ccc(F)cc1-c1cc(OC)c(-c2nccc3cc(S(=O)(=O)Nc4ccon4)ccc23)cc1C` [Example 280, 1-(5′-fluoro-2′,5-dimethoxy-2-methyl-4-biphenylyl)-N-3-isoxazolyl-6-isoquinolinesulfonamide] the value was 60.3 nM; for `COc1ccc(Cl)cc1-c1cc(OC)c(-c2nccc3cc(S(=O)(=O)Nc4ccon4)ccc23)cc1C` [Example 281, 1-(5′-chloro-2′,5-dimethoxy-2-methyl-4-biphenylyl)-N-3-isoxazolyl-6-isoquinolinesulfonamide], 16.4 nM; for `COc1cc(-c2ccc(C)c(Cl)c2)c(C)cc1-c1nccc2cc(S(=O)(=O)Nc3ccon3)ccc12` [Example 282, 1-(3′-chloro-5-methoxy-2,4′-dimethyl-4-biphenylyl)-N-3-isoxazolyl-6-isoquinolinesulfonamide], 98.6 nM.
Still for that read-out and setting: for `COc1cc(-c2cc(C)cc(Cl)c2)c(C)cc1-c1nccc2cc(S(=O)(=O)Nc3ccon3)ccc12` [Example 283, 1-(3′-chloro-5-methoxy-2,5′-dimethyl-4-biphenylyl)-N-3-isoxazolyl-6-isoquinolinesulfonamide] the value was 37.5 nM; for `COc1cc(-c2ccc(F)c(Cl)c2)c(C)cc1-c1nccc2cc(S(=O)(=O)Nc3ccon3)ccc12` [Example 284, 1-(3′-chloro-4′-fluoro-5-methoxy-2-methyl-4-biphenylyl)-N-3-isoxazolyl-6-isoquinolinesulfonamide], 22.8 nM; for `COc1cc(-c2cc(F)cc(Cl)c2)c(C)cc1-c1nccc2cc(S(=O)(=O)Nc3ccon3)ccc12` [Example 285, 1-(3′-chloro-5′-fluoro-5-methoxy-2-methyl-4-biphenylyl)-N-3-isoxazolyl-6-isoquinolinesulfonamide], 58 nM.
Same read-out and setting: in the case of `COc1cc(-c2ccc(Cl)c(F)c2)c(C)cc1-c1nccc2cc(S(=O)(=O)Nc3ccon3)ccc12` [Example 286, 1-(4′-chloro-3′-fluoro-5-methoxy-2-methyl-4-biphenylyl)-N-3-isoxazolyl-6-isoquinolinesulfonamide] it was 188 nM; in that of `COc1cc(-c2ccc(C)c(Cl)c2)ccc1-c1nccc2cc(S(=O)(=O)Nc3ccon3)ccc12` [Example 287, 1-(3′-chloro-3-methoxy-4′-methyl-4-biphenylyl)-N-3-isoxazolyl-6-isoquinolinesulfonamide], 111 nM.
Regarding `COc1cc(-c2ccc(Cl)c(C)c2)ccc1-c1nccc2cc(S(=O)(=O)Nc3ccon3)ccc12` [Example 288, 1-(4′-chloro-3-methoxy-3′-methyl-4-biphenylyl)-N-3-isoxazolyl-6-isoquinolinesulfonamide], the IC50 stood at 77.5 nM.
As to `COc1cc(-c2cccc(F)c2)c(Cl)cc1-c1ncnc2cc(S(=O)(=O)Nc3ncc(F)cn3)ccc12` [Example 289, 4-(2-chloro-3′-fluoro-5-methoxy-4-biphenylyl)-N-(5-fluoro-2-pyrimidinyl)-7-quinazolinesulfonamide], the midpoint of inhibition, the IC50, lay at 89.5 nM.
Still for that read-out and setting: in the case of `COc1cc(-c2ccc(Cl)c(F)c2)ccc1-c1nccc2cc(S(=O)(=O)Nc3ccon3)ccc12` [Example 290, 1-(4′-chloro-3′-fluoro-3-methoxy-4-biphenylyl)-N-3-isoxazolyl-6-isoquinolinesulfonamide] it was 137 nM; in that of `COc1cc(-c2cccc(F)c2)c(Cl)cc1-c1cccc2cc(S(=O)(=O)Nc3ccon3)ccc12` [Example 291, 5-(2-chloro-3′-fluoro-5-methoxy-4-biphenylyl)-N-3-isoxazolyl-2-naphthalenesulfonamide], 1160 nM.
On the same count and under the same terms, for `COc1cc(-c2cccc(F)c2)c(C#N)cc1-c1cccc2cc(S(=O)(=O)Nc3ccon3)ccc12` [Example 292, 5-(2-cyano-3′-fluoro-5-methoxy-4-biphenylyl)-N-3-isoxazolyl-2-naphthalenesulfonamide] the value was 256 nM; for `COc1cc(-c2ccc(Cl)c(F)c2)ccc1-c1nccc2cc(S(=O)(=O)Nc3ncccn3)ccc12` [Example 293, 1-(4′-chloro-3′-fluoro-3-methoxy-4-biphenylyl)-N-2-pyrimidinyl-6-isoquinolinesulfonamide], 407 nM.

What is called IC50 is the concentration at which inhibition is half-maximal.
